Measured values as given in US20200085749A1, “IMMEDIATE-RELEASE TABLETS CONTAINING A DRUG AND PROCESSES FOR FORMING THE TABLETS” (Genentech, Inc., priority 2015, published 2020).

Assays:
[1] = test system: BRAF^v600 mutation-positive advance melanoma; details: cited from earlier work
[2] = test system: unresectable or metastatic melanoma that is BRAF^v600E mutation-positive; details: cited from earlier work
[3] = 24-hour solubility of active drug in buffers across the physiological pH range; format: physicochemical; details: 37° C.
Protocol: Cobimetinib is considered to be a high-solubility, moderate-to-high permeability compound with in vivo absorption/pharmacokinetic characteristics consistent with Biopharmaceutics Classification System (BCS) Class 1. […] An active drug is considered highly soluble when the highest dose strength is soluble in <250 mL water over a pH range of 1 to 7.5.

Molecule	median progression-free survival [1]	decrease in the risk of disease progression or death ([2]; compared with dacarbazine)	reduction in the risk of death ([2]; compared with dacarbazine)	response rates ([2]; human, in vivo)	Solubility ([3]; 50 mM Acetate pH 4.5 (pH measured 4.5))	Solubility ([3]; 50 mM Phosphate pH 6.8 (pH measured 6.8))	Solubility ([3]; 50 mM Phosphate pH 7.5 (pH measured 7.5))	Solubility ([3]; 0.1M HCl pH 1.1 (pH measured 1.9))	Solubility ([3]; FaSSIF pH 6.5 (pH measured 6.4))	Solubility ([3]; FeSSIF pH 5.0 (pH measured 5.0))	Solubility ([3]; Water, pH Neutral (pH measured 7.5))
CCCS(=O)(=O)Nc1ccc(F)c(C(=O)c2c[nH]c3ncc(-c4ccc(Cl)cc4)cc23)c1F [vemurafenib, propane-1-sulfonic acid {3-[5-(4-chlorophenyl)-1H-pyrrolo[2,3-b]pyridine-3-carbonyl]-2,4-difluoro-phenyl}-amide]	6.2 months	74%	63%	greater than 50%	–	–	–	–	–	–	–
(S)-[3,4-Difluoro-2-(2-fluoro-4-iodoanilino)phenyl]{3-hydroxy-3-[(2S)-piperidin-2-yl]azetidin-1-yl} methanone [cobimetinib hemifumarate]	–	–	–	–	1080 µg/mL	780 µg/mL	730 µg/mL	48210 µg/mL	480 µg/mL	4130 µg/mL	720 µg/mL
